These compounds were tested against Tyrosine-protein kinase SYK (Homo sapiens, UniProt P43405) (assay: Inhibition of human recombinant SYK by HTRF assay).

| SMILES | IC50 |
| --- | --- |
| NC(=O)c1ccc(N[C@@H]2CCCC[C@@H]2N)cc1Nc1cccc(-c2ccc(F)c(F)c2)n1 | < 1.5 nM |
| COc1ccc(-c2cccc(Nc3cc(N[C@@H]4CCCC[C@@H]4N)ccc3C(N)=O)n2)cc1 | < 1.5 nM |

More lines, now with the values ahead:

| IC50 | SMILES |
| --- | --- |
| > 1.5 nM | Cc1cccc(Nc2cc(N[C@@H]3CCCC[C@@H]3N)ccc2C(N)=O)n1 |
| < 1.5 nM | NC(=O)c1ccc(N[C@@H]2CCCC[C@@H]2N)cc1Nc1cccc(-c2ccccc2)n1 |
| < 1.5 nM | NC(=O)c1ccc(N[C@@H]2CCCC[C@@H]2N)cc1Nc1cccc(-c2cccc(F)c2)n1 |

Source: ChEMBL document CHEMBL3259636, “Phenyl carboxamide analogues as spleen tyrosine kinase (syk) inhibitors” (ACS Med Chem Lett, 2014)
